Ends that are not written are not given here.
B1: Peptide 125 (peptide)
peptide: HRLRQIRGIRARVVQIQKEIWRLNEVAKLLNESLIYLQE
B2: Peptide 121 (peptide)
peptide: HVLGDISGINASVVQIQKEIDRLNEVAKNLHESLIYLQE

Columns and labels:
HCoV-229E = details: 24 h
[1] = Cytotoxicity (CC50) of tested peptides; details: African green monkey, Vero E6 cells
[2] = molecular target: HCoV-229E spike (S) protein (human coronavirus 229E, UniProt P15423); assay: cell-based or functional assay

Molecule | IC50 (HCoV-229E) | Selectivity Index (HCoV-229E) | CC50 [1] | IC50, plaque reduction test against HCoV-229E [2]
CC[C@H](C)[C@H](NC(=O)CNC(=O)[C@H](CO)NC(=O)[C@@H](NC(=O)[C@H](CC(=O)O)NC(=O)CNC(=O)[C@H](CC(C)C)NC(=O)[C@@H](NC(=O)[C@@H](N)Cc1c[nH]cn1)C(C)C)[C@@H](C)CC)C(=O)N[C@@H](CC(N)=O)C(=O)N[C@@H](C)C(=O)N[C@@H](CO)C(=O)N[C@H](C(=O)N[C@H](C(=O)N[C@@H](CCC(N)=O)C(=O)N[C@H](C(=O)N[C@@H](CCC(N)=O)C(=O)N[C@@H](CCCCN)C(=O)N[C@@H](CCC(=O)O)C(=O)N[C@H](C(=O)N[C@@H](CC(=O)O)C(=O)N[C@@H](CCCNC(=N)N)C(=O)N[C@@H](CC(C)C)C(=O)N[C@@H](CC(N)=O)C(=O)N[C@@H](CCC(=O)O)C(=O)N[C@H](C(=O)N[C@@H](C)C(=O)N[C@@H](CCCCN)C(=O)N[C@@H](CC(N)=O)C(=O)N[C@@H](CC(C)C)C(=O)N[C@@H](Cc1c[nH]cn1)C(=O)N[C@@H](CCC(=O)O)C(=O)N[C@@H](CO)C(=O)N[C@@H](CC(C)C)C(=O)N[C@H](C(=O)N[C@@H](Cc1ccc(O)cc1)C(=O)N[C@@H](CC(C)C)C(=O)N[C@@H](CCC(N)=O)C(=O)N[C@@H](CCC(=O)O)C(=O)O)[C@@H](C)CC)C(C)C)[C@@H](C)CC)[C@@H](C)CC)C(C)C)C(C)C [Peptide 121] | 14.2 µM | 13.06 | 251 µM | –
HRLRQIRGIRARVVQIQKEIWRLNEVAKLLNESLIYLQE [Peptide 125] | 14.5 µM | 17.56 | 255 µM | –
B1 | – | – | – | 14.5 µM
B2 | – | – | – | 14.2 µM
